The conditions of data set [1]: Telmisartan 80 mg in the presence of Dapagliflozin 10 mg, repeated oral, steady state.
Data set [2] deals with angiotensin converting enzyme (ACE). Briefly: ACE mRNA expression (RT-PCR, normalized to GAPDH) in LPS inflammation-induced H9c2 cells. Format: cell-based, rat. As to the method:
Specifically, LPS inflammation-induced H9c2 cells in Experimental Example 1-2 were treated with 10 or 25 µM Telmisartan and 10 or 50 µM Olmesartan, and then treated with 200 µl of chloroform together with 1 ml of TRIZol (Sigma, USA), gently mixed, and separated for 10 minutes, and then centrifuged at 4°C and 10,000 rpm for 10 minutes. After centrifugation, only the supernatant from the tube was taken and transferred to a new sterile tube, and the supernatant was treated with 500 µl of isopropanol to precipitate RNA. The precipitated RNA was centrifuged at 4°C, 10,000 rpm for 10 minutes, and then the supernatant except for the pellets in the tube was fully removed, and the RNA pellets were treated with 500 µl of 75% ethyl alcohol and thoroughly washed. The washed pellets were centrifuged at 4°C, 10,000 rpm for 5 minutes, and then the supernatant except the pellets was fully removed. The tube containing the pellets from which the supernatant had been cleanly removed was treated with diethyl pyrocarbonate (DEPC)-water and stored at - 80°C for use in an RT-PCR experiment.
RT-PCR was performed by synthesizing cDNA from mRNA using an RT-PCR kit containing DNA polymerase, buffer, dNTP, and tracking dye, and then using ACE primers in Table 1 under the conditions in Table 2 for 35 cycles. The PCR products were electrophoresed on a […] agarose gel, identified using a UV transilluminator, and expressed as normalized to GAPDH for quantitative comparison.
In order to confirm the effect of each combination or single substance on the mRNA expression of ACE, the experimental samples in Table 3 were treated to H9c2 cells induced with LPS inflammation in Experimental Example 1-2, respectively, and then the mRNA expression of ACE was evaluated in the same manner as in Experimental Example 1-3.

The test system of the next data set is MDCK cells. Briefly: Cell survival rate (MTT) in MDCK cells. The following applies: after 24 hours and 48 hours, up to a concentration of 25 µM. The class given is cell-based. As to the method:
(§1) Specifically, A549 cells were obtained from the Korean Cell Line Bank (KCLB) and subcultured using a RPMI-1640 medium supplemented with 10% fetal bovine serum (FBS) and 1% Penicillin, and MDCK cells were obtained from ATCC and subcultured using a DMEM medium supplemented with 10% FBS. 200 µl each of the A549 cells and MDCK cells incubated in an incubator under 37°C and 5% CO2 conditions were dispensed at 2 × 10^4 cells/well in a 96-well plate, and then a control group was treated with 100 µl of the medium, and experimental groups were treated with 1.25, 25, 50, and 100 µM of Telmisartan or Olmesartan, respectively. After 24 hours and 48 hours, all of the wells were treated with 50 µl each of a 2 mg/ml MTT reagent and incubated in an incubator for 3 hours, and then each well was added with 500 µl of DMSO, wrapped in foil, stirred for 30 minutes at room temperature, and the absorbance was measured at 570 nm to obtain the cell survival rate.

Data set [3] relates to angiotensin converting enzyme (ACE). Briefly: ACE protein expression (Human ACE ELISA) in LPS inflammation-induced H9c2 cells. Format: cell-based, rat. The protocol:
Specifically, H9c2 cells as a human cardiac cell line were obtained and used from the Korea Cell Line Bank (KCLB 40071, Korea) and incubated and prepared in a DMEM medium supplemented with 10% FBS and 1% antibiotic-antimycotic (10 units/ml penicillin, 100 µg/ml streptomycin, 0.25 µg/ml amphotericin) under 37°C and 5% CO2 conditions.
To confirm the effect on ACE activity, the prepared H9c2 cells were treated with 2.5 µg/ml of Lipopolysaccharide (LPS), which was 2.5 times more than the amount used in conventional inflammation-related experiments, to induce inflammation, thereby setting the optimized conditions for confirming ACE expression. […]
To perform the ELISA assay, 10,000 pg/ml, 5,000 pg/ml, 2,500 pg/ml, 1,250 pg/ml, 625 pg/ml, 312 pg/ml, and 156 pg/ml of Human ACE standard solutions and a standard dilution buffer were added by 0.1 ml to each well of an antibody-coated 96-well plate. […] Thereafter, each well was added with 90 µl of the prepared TMB solution, incubated for 20 to 25 minutes in a dark room at 37°C, and then treated with each 0.1 ml of the prepared TMB stop solution to stop an ACE ELISA reaction, and the OD absorbance at 450 nm was read in a microplate reader within 30 minutes, and the relative OD450 was derived using the following Equation. […]

Data set [4] can be described thus: 4-week repeated oral administration toxicity. The following applies: daily for 4 weeks. Format: in vivo, Sprague-Dawley rats. The protocol: Specifically, groups were configured in the same manner as in Experimental Example 4-1, and the combinations were administered orally daily for 4 weeks to 5 male and 5 female 6-week-old Sprague-Dawley rats per group. During the test, general symptom observation, blood test, and body weight measurement were performed, and after the observation period ended, the rats were euthanized and autopsied.

A further data set concerns A549 cells. The data set is described as follows: Cell survival rate (MTT) in A549 cells. The following applies: after 24 hours and 48 hours, up to a concentration of 25 µM. Format: cell-based. As to the method:
as §1

Each structure is given as a SMILES string.

On to `CCCc1nc2c(C)cc(-c3nc4ccccc4n3C)cc2n1Cc1ccc(-c2ccccc2C(=O)O)cc1` [Telmisartan, 4'-[(1,4'-dimethyl-2'-propyl[2,6'-bi-1H-benzimidazol]-1'-yl)methyl][1,1'-biphenyl]-2-carboxylic acid], for which the “Cmax T/R ratio” value in data set [1] (90% confidence interval 0.99 to 1.43) was determined as 1.19. Also, the “AUC T/R ratio” value in data set [1] (90% confidence interval 1.01 to 1.18) is on record as 1.09. Moreover, the mRNA expression result in data set [2] (ACE mRNA, 25 µM treatment group) is given as “mostly inhibited”. Moreover, the “mRNA expression inhibition effect” value in data set [2] (ACE mRNA, all treatment concentrations (Telmisartan 10 or 25 µM, Olmesartan 10 or 50 µM)) is reported as “superior to that of Olmesartan”. For the same molecule, the “mRNA expression of ACE” value in data set [2] (alone, low-concentration administration groups of 2.5 µM to 10 µM) is “did not decrease to a normal level”. Moreover, the cell survival rate result with MDCK cells and with A549 cells was “no effect” throughout. In addition, the “ACE expression inhibition effect” value in data set [3] (25 µM treatment group) is “the best”; in data set [3] (all treatment concentrations (10, 25, 50 µM), comparison with Olmesartan), “superior to that of Olmesartan”. In data set [4], the body weight measurement entry is “tendency for inhibiting weight gain”.
